Molecules are shown by their SMILES. Where two headings read alike, the source gives them in different places.

Common to all, as to test: Glasshouse assay for herbicidal activity (pre- and post-emergence), percentage phytotoxicity
Format in all cases: in vivo

Test [1] relates to Alopecurus myosuroides (ALOMY). Conditions: Alopecurus myosuroides. In outline: (§1)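 Seeds were sown in standard soil in pots and grown one day (pre-emergence) or about 12 days (post-emergence) before herbicide application. Plants were kept at 24/18 °C (warm-climate) or 20/16 °C (cool-climate) day/night, 16 h light, 65% humidity, watered twice daily, and damage was scored visually at 15 DAA (POST) or 20 DAA (PRE).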

The next test relates to Avena fatua (AVEFA). To be noted: Avena fatua. An outline of the steps: as §1
The test system of test [2] is Echinochloa crus-galli (ECHCG). To be noted: Echinochloa crus-galli. An outline of the steps: as §1
In another test the test system is Lolium perenne (LOLPE). Conditions: Lolium perenne. In outline: as §1
Setting [3] is: post-emergence, 360 h, Rate 250 g/ha, post-emergence, visual assessment 15 DAA, 100%=total damage, 0%=no damage, read-out: Post-emergence herbicidal activity (percentage phytotoxicity) ALOMY POST.
Where [4] appears, read: pre-emergence, 480 h, Rate 250 g/ha, pre-emergence, visual assessment 20 DAA, 100%=total damage, 0%=no damage, read-out: Pre-emergence herbicidal activity (percentage phytotoxicity) ALOMY PRE.
Setting [5] is: post-emergence, 360 h, Rate 250 g/ha, post-emergence, visual assessment 15 DAA, 100%=total damage, 0%=no damage, read-out: Post-emergence herbicidal activity (percentage phytotoxicity) AVEFA POST.
Setting [6] is: pre-emergence, 480 h, Rate 250 g/ha, pre-emergence, visual assessment 20 DAA, 100%=total damage, 0%=no damage, read-out: Pre-emergence herbicidal activity (percentage phytotoxicity) AVEFA PRE.
Setting [7] is: post-emergence, 360 h, Rate 250 g/ha, post-emergence, visual assessment 15 DAA, 100%=total damage, 0%=no damage, read-out: Post-emergence herbicidal activity (percentage phytotoxicity) ECHCG POST.
[8] abbreviates: pre-emergence, 480 h, Rate 250 g/ha, pre-emergence, visual assessment 20 DAA, 100%=total damage, 0%=no damage, read-out: Pre-emergence herbicidal activity (percentage phytotoxicity) ECHCG PRE.
The mark [9] stands for this setting: post-emergence, 360 h, Rate 250 g/ha, post-emergence, visual assessment 15 DAA, 100%=total damage, 0%=no damage, read-out: Post-emergence herbicidal activity (percentage phytotoxicity) LOLPE POST.
Setting [10] is: pre-emergence, 480 h, Rate 250 g/ha, pre-emergence, visual assessment 20 DAA, 100%=total damage, 0%=no damage, read-out: Pre-emergence herbicidal activity (percentage phytotoxicity) LOLPE PRE.
[11] abbreviates: post-emergence, 360 h, 250 g/ha, post-emergence, 15 DAA, visual assessment (100%=total damage, 0%=no damage), read-out: Post-emergence herbicidal activity (percentage phytotoxicity) ALOMY POST.
Where [12] appears, read: pre-emergence, 480 h, 250 g/ha, pre-emergence, 20 DAA, visual assessment (100%=total damage, 0%=no damage), read-out: Pre-emergence herbicidal activity (percentage phytotoxicity) ALOMY PRE.
Where [13] appears, read: post-emergence, 360 h, 250 g/ha, post-emergence, 15 DAA, visual assessment (100%=total damage, 0%=no damage), read-out: Post-emergence herbicidal activity (percentage phytotoxicity) AVEFA POST.
Setting [14] is: pre-emergence, 480 h, 250 g/ha, pre-emergence, 20 DAA, visual assessment (100%=total damage, 0%=no damage), read-out: Pre-emergence herbicidal activity (percentage phytotoxicity) AVEFA PRE.
[15] abbreviates: post-emergence, 360 h, 250 g/ha, post-emergence, 15 DAA, visual assessment (100%=total damage, 0%=no damage), read-out: Post-emergence herbicidal activity (percentage phytotoxicity) ECHCG POST.
[16] abbreviates: pre-emergence, 480 h, 250 g/ha, pre-emergence, 20 DAA, visual assessment (100%=total damage, 0%=no damage), read-out: Pre-emergence herbicidal activity (percentage phytotoxicity) ECHCG PRE.
Where [17] appears, read: post-emergence, 360 h, 250 g/ha, post-emergence, 15 DAA, visual assessment (100%=total damage, 0%=no damage), read-out: Post-emergence herbicidal activity (percentage phytotoxicity) LOLPE POST.
[18] abbreviates: pre-emergence, 480 h, 250 g/ha, pre-emergence, 20 DAA, visual assessment (100%=total damage, 0%=no damage), read-out: Pre-emergence herbicidal activity (percentage phytotoxicity) LOLPE PRE.
[19] abbreviates: post-emergence, 360 h, POST-emergence, rate 250 g/ha, visual score 15 DAA (100%=total damage, 0%=no damage), read-out: Post-emergence herbicidal activity (percentage phytotoxicity) ALOMY POST.
Where [20] appears, read: pre-emergence, 480 h, PRE-emergence, rate 250 g/ha, visual score 20 DAA (100%=total damage, 0%=no damage), read-out: Pre-emergence herbicidal activity (percentage phytotoxicity) ALOMY PRE.
[21] abbreviates: post-emergence, 360 h, POST-emergence, rate 250 g/ha, visual score 15 DAA (100%=total damage, 0%=no damage), read-out: Post-emergence herbicidal activity (percentage phytotoxicity) AVEFA POST.
The mark [22] stands for this setting: pre-emergence, 480 h, PRE-emergence, rate 250 g/ha, visual score 20 DAA (100%=total damage, 0%=no damage), read-out: Pre-emergence herbicidal activity (percentage phytotoxicity) AVEFA PRE.
Where [23] appears, read: post-emergence, 360 h, POST-emergence, rate 250 g/ha, visual score 15 DAA (100%=total damage, 0%=no damage), read-out: Post-emergence herbicidal activity (percentage phytotoxicity) ECHCG POST.
The mark [24] stands for this setting: pre-emergence, 480 h, PRE-emergence, rate 250 g/ha, visual score 20 DAA (100%=total damage, 0%=no damage), read-out: Pre-emergence herbicidal activity (percentage phytotoxicity) ECHCG PRE.
Where [25] appears, read: post-emergence, 360 h, POST-emergence, rate 250 g/ha, visual score 15 DAA (100%=total damage, 0%=no damage), read-out: Post-emergence herbicidal activity (percentage phytotoxicity) LOLPE POST.
Where [26] appears, read: pre-emergence, 480 h, PRE-emergence, rate 250 g/ha, visual score 20 DAA (100%=total damage, 0%=no damage), read-out: Pre-emergence herbicidal activity (percentage phytotoxicity) LOLPE PRE.

Consider `Cc1cc(-c2ncc(Cl)cc2Cl)cc(C)c1C1C(=O)CC(CC(=O)NC(C)(C)C)C1=O` (centres unmarked) [Compound A168], for which the pest or weed control at 250 g/ha turned out to be 90% in test [1] (post-emergence, 360 h, post-emergence, 250 g/ha, 15 DAA, visual score (100%=total damage; 0%=no damage), read-out: ALOMY POST herbicidal activity (percentage phytotoxicity)); 80% in test [1] (pre-emergence, 480 h, pre-emergence, 250 g/ha, 20 DAA, visual score (100%=total damage; 0%=no damage), read-out: ALOMY PRE herbicidal activity (percentage phytotoxicity)); 90% in the test on Avena fatua (AVEFA) (post-emergence, 360 h, post-emergence, 250 g/ha, 15 DAA, visual score (100%=total damage; 0%=no damage), read-out: AVEFA POST herbicidal activity (percentage phytotoxicity)); 20% in the test on Avena fatua (AVEFA) (pre-emergence, 480 h, pre-emergence, 250 g/ha, 20 DAA, visual score (100%=total damage; 0%=no damage), read-out: AVEFA PRE herbicidal activity (percentage phytotoxicity)); 100% in test [2] (post-emergence, 360 h, post-emergence, 250 g/ha, 15 DAA, visual score (100%=total damage; 0%=no damage), read-out: ECHCG POST herbicidal activity (percentage phytotoxicity)); 80% in test [2] (pre-emergence, 480 h, pre-emergence, 250 g/ha, 20 DAA, visual score (100%=total damage; 0%=no damage), read-out: ECHCG PRE herbicidal activity (percentage phytotoxicity)). For the same compound, the pest or weed control at 250 g/ha in the test with Lolium perenne (LOLPE) (post-emergence, 360 h, post-emergence, 250 g/ha, 15 DAA, visual score (100%=total damage; 0%=no damage), read-out: LOLPE POST herbicidal activity (percentage phytotoxicity)) is 100%; in the test on Lolium perenne (LOLPE) (pre-emergence, 480 h, pre-emergence, 250 g/ha, 20 DAA, visual score (100%=total damage; 0%=no damage), read-out: LOLPE PRE herbicidal activity (percentage phytotoxicity)) it was 80%.

`COCCCNC(=O)CC1CC(OC(=O)C(C)(C)C)=C(c2c(C)cc(C)cc2C)C1=O` (centres unmarked) [Compound P10]: the pest or weed control at 250 g/ha in test [1] (setting [3]) turned out to be 90%; in test [1] (setting [4]), 90%; in the test with Avena fatua (AVEFA) (setting [5]) it was 90%; with Avena fatua (AVEFA) (setting [6]), 60%; in test [2] (setting [7]) it was 90%; in test [2] (setting [8]), 90%. For the same compound, the pest or weed control at 250 g/ha in the test with Lolium perenne (LOLPE) (setting [9]) and with Lolium perenne (LOLPE) (setting [10]) was 90% throughout.

Take `Cc1cc(-c2ncc(F)cc2F)cc(C)c1C1C(=O)CC(CC(=O)NCC2CC2(Cl)Cl)C1=O` (centres unmarked) [Compound B77]: the pest or weed control at 250 g/ha came out at 100% in test [1] (setting [11]); 90% in test [1] (setting [12]); 100% with Avena fatua (AVEFA) (setting [13]); 90% with Avena fatua (AVEFA) (setting [14]); 100% in test [2] (setting [15]); 100% in test [2] (setting [16]). For the same compound, the pest or weed control at 250 g/ha in the test with Lolium perenne (LOLPE) (setting [17]) and in the test with Lolium perenne (LOLPE) (setting [18]) was 100% throughout.

As for `CCc1cc(C)cc(C)c1C1C(=O)CC(CC(=O)N(C)CC)C1=O` (centres unmarked) [Compound B258], the pest or weed control at 250 g/ha in test [1] (setting [19]) turned out to be 100%; in test [1] (setting [20]), 100%; with Avena fatua (AVEFA) (setting [21]) it was 100%; in the test on Avena fatua (AVEFA) (setting [22]), 90%; in test [2] (setting [23]), 100%; in test [2] (setting [24]), 100%. Further, the pest or weed control at 250 g/ha with Lolium perenne (LOLPE) (setting [25]) and with Lolium perenne (LOLPE) (setting [26]) was 100% each time.

For `Cc1cc(-c2ncc(Cl)cc2F)cc(C)c1C1C(=O)CC(CC(=O)NCCF)C1=O` (centres unmarked) [Compound B95], the pest or weed control at 250 g/ha (in test [1] (setting [11]); in test [1] (setting [12]); in the test with Avena fatua (AVEFA) (setting [13]); in the test with Avena fatua (AVEFA) (setting [14]); in test [2] (setting [15]); in test [2] (setting [16])) was 100% each time. Also, the pest or weed control at 250 g/ha with Lolium perenne (LOLPE) (setting [17]) and in the test with Lolium perenne (LOLPE) (setting [18]) was 100% each time.

`Cc1cc(-c2ncc(Cl)cn2)cc(C)c1C1C(=O)CC(CC(=O)NCC2CC2)C1=O` (centres unmarked) [Compound B342]: the pest or weed control at 250 g/ha in test [1] (setting [3]) turned out to be 100%; in test [1] (setting [4]), 100%; in the test on Avena fatua (AVEFA) (setting [5]), 100%; with Avena fatua (AVEFA) (setting [6]), 90%; in test [2] (setting [7]) it was 100%; in test [2] (setting [8]), 100%. The pest or weed control at 250 g/ha with Lolium perenne (LOLPE) (setting [9]) and with Lolium perenne (LOLPE) (setting [10]) was 100% each time.

On to `Cc1cc(-c2ncc(F)cn2)cc(C)c1C1C(=O)CC(CC(=O)NC/C=C\Br)C1=O` (centres unmarked) [Compound B326], for which the pest or weed control at 250 g/ha in test [1] (setting [19]) was 100%; in test [1] (setting [20]) it was 100%; in the test with Avena fatua (AVEFA) (setting [21]), 100%; with Avena fatua (AVEFA) (setting [22]), 80%; in test [2] (setting [23]) it was 100%; in test [2] (setting [24]) it was 100%. For the same compound, the pest or weed control at 250 g/ha in the test with Lolium perenne (LOLPE) (setting [25]) and in the test on Lolium perenne (LOLPE) (setting [26]) was 100% throughout.

The values above are taken from patent publication US10206394B2, “Herbicidal compounds” (Syngenta Participations AG, priority 2014, dated 2019).
